Reference: patent publication US9260473B2, “Bivalent multifunctional ligands targeting Aβ oligomers as treatment for Alzheimer's disease” (Virginia Commonwealth University, priority 2010, dated 2016)

Key:
[1] = biological target: T1, Aβ42 (Homo sapiens, UniProt P05067); assay: Aβ42 oligomerization inhibition assay (Western blot); format: biochemical; conditions: Aβ42 5 μM, compound 20 μM, 4 hrs at 37° C.
T1 construct: Aβ42 was obtained from American Peptide, Inc. (Sunnyvale, Calif.); purchased American Peptide, Inc. (Sunnyvale, Calif.)
Experimental: In order to confirm 14 can bind to AβOs, the inhibition of Aβ42 oligomerization was performed and assessed using Western blot analysis as described in literature^29 in order to investigate binding interactions of 14 with Aβ42 and the CM/LR of MC65 cells. Briefly, Aβ42 (5 μM) was incubated with or without compounds (20 μM), then samples were analyzed by Western blot using 6E10 antibody.
Aβ42 oligomerization inhibition assay. An aliquot of Aβ42 (0.045 mg) was dissolved in 20 μL of DMSO and diluted in Ham's F-12 media without phenol red (Caisson's Laboratory, Inc., Utah). […] After incubation, the samples (50 μL) were spun down at 14,000×g for 10 min. The supernatant (20 μL) was mixed with an equal part of Tricine sample buffer without reducing agents (Bio-Rad). The unaggregated Aβ42 control was not incubated at 37° C., and mixed with sample buffer (no centrifuging) and stored at −80° C. before it was electrophoresed. Samples (25 μL) were electrophoresed on a 10-20% Tris-Tricine gel, transferred to PVDF membrane, and blocked with 10% nonfat milk in PBS for 30 min. […] The proteins were visualized by Western Blot Chemiluminescence Reagent (NEN Life Science Products, Boston, Mass.).

[2] = tested on: extracellular AβOs; assay: ML60 cell assay: ELISA for extracellular AβOs; format: cell-based, Chinese hamster; conditions: ML60 cells, 10 μM, 24 hrs
Experimental: Next, another cell line, ML60, was employed to evaluate the inhibition of AβOs production.
ML60 cell assay. Sandwich enzyme-linked immunoassays (ELISAs) for extracellular AβOs in ML60 cells were performed. ML60 cells (90% confluent) in 96-well plates were treated with test compounds (10 μM) at 37° C., 5% CO2 for 24 hrs. ML60 cells were centrifuged for 5 min at 6000 g, and supernatant media was collected for AβOs measurement by ELISA. The capture antibody 21F12 (to Aβ residues 33-42) was used for capturing both monomeric and oligomeric Aβ42 species. The detecting antibody was biotinylated 21F12B, and the combination of 21F12 and biotinylated 21F12B allows the detection of only AβOs. The 21F12 mAbs were coated at 10 mg/mL into 96-well immunoassay plates (Costar) at room temperature overnight. The plates were then aspirated and blocked with 0.25% human serum albumin in PBS buffer for 1 hr at room temperature. The plates were rehydrated with wash buffer (0.05% Tween 20 in TBS) before use. The samples were added to the plates and incubated at room temperature for 1 hr. The plates were washed 3× with wash buffer between each step of the assay. […] Reaction product was quantified using plate reader by measuring the difference in absorbance at 450 nm and 650 nm.

T1 sequence (P05067 672-713 limits assumed): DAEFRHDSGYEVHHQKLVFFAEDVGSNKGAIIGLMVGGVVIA

COc1cc(C=CC(=O)C(Cc2cn(CCCCCCNC(=O)CCNC(=O)CCNC(=O)COC3CCC4(C)C(=CCC5C4CCC4(C)C(C(C)CCCC(C)C)CCC54)C3)nn2)C(=O)C=Cc2ccc(O)c(OC)c2)ccc1O (centres unmarked) [BMAOI 14]
inhibition of oligomerization of Aβ42 [1]: inhibited the oligomerization of Aβ42 | production of extracellular AβOs (ELISA) [2]: inhibited the production of extracellular AβOs
